Values belong to the compound of their own block, whether it stands above or below them.
Legend:
FGFR1 = target: T1, FGFR1 (Homo sapiens, UniProt P11362); assay: Kinase binding assay (Kd), FGFR1; conditions: 11-point 3-fold dilution, qPCR readout
T1 construct: made in house; host or cells: E. coli host derived from BL21, infected with T7 phage
Procedure, shortened: (§1)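 Competition binding: kinase-tagged T7 phage, ligand-coated streptavidin beads and an 11-point 3-fold compound series (0.9% DMSO final) were incubated 1 h at room temperature. Bead-bound kinase was eluted and quantified by qPCR. Kd was fitted to the Hill equation with slope fixed at −1.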

FGFR3 = target: T2, FGFR3 (Homo sapiens, UniProt P22607); assay: Kinase binding assay (Kd), FGFR3; conditions: 11-point 3-fold dilution, qPCR readout
T2 construct: made in house; host or cells: E. coli host derived from BL21, infected with T7 phage
Procedure, shortened: as §1

FGFR4 = target: T3, FGFR4 (Homo sapiens, UniProt P22455); assay: Kinase binding assay (Kd), FGFR4; conditions: 11-point 3-fold dilution, qPCR readout
T3 construct: made in house; host or cells: E. coli host derived from BL21, infected with T7 phage
Procedure, shortened: as §1

[1] = tested on: KG-1 cells (Acute Myeloid Leukemia, FGFR1OP2-FGFR1 fusion); assay: Cancer cell line cell viability assay, KG-1; type: cell-based; conditions: Homo sapiens, 72 hours, Cell Titer-Glo 2.0, read-out: Cancer Cell Viability Assays KG1 (IC50 nM)
Excerpt: To detect the change of intracellular ATP by Cell Titer-Glo® and to evaluate the inhibitory effect of the compounds on cancer cell lines by determining the in vitro IC50 value of the compounds.
Cell Titer-Glo® 2.0 Luminescent cell viability assay reagent was purchased from Promega (Madison, Wis.). RT112/84, SNU-16, and KG-1 cell lines were purchased from American Type Culture Collection (Manassas, Va.). UM-UC-14 cell line was purchased from Sigma (St. Louis, Mo.). RT112/84, UM-UC-14, SNU-16, and KG-1 cells were cultured in RPMI1640 media supplemented with 10% fetal bovine serum. Cultures were maintained at 37° C. in a humidified atmosphere of 5% CO2 and 95% air.
Cell Viability Assay Procedure: Cells were plated in 96-well clear bottom/white plates (Corning #3903) at 10,000 cells/well in 100 μl of media, incubated overnight. The next day, test compound DMSO stock solutions were made at 10 mM and 2 μM final concentration. Compounds were then added to cells in a 9-dose, 10-fold dilution series starting at 30 μM with an HP 300e Digital Dispenser (each dose was applied in triplicate). DMSO was backfilled to each well up to 301 nL total volume of test compound+DMSO, and a total of 301 nL DMSO was added to a control/no test compound well in triplicate. The cells in cell culture plates were incubated with the compounds at 37° C. and 5% CO2 for 72 hours. Then 50 μl of Cell Titer Glo 2.0 reagent was added to each well of the cell culture plates. The contents were covered from light and mixed on an orbital shaker at room temperature for 10 min. Luminescence was recorded by a Synergy H1 Microplate Reader (Biotek, Winooski, Vt.). Cells were assessed as a percentage of DMSO only treated control cells. Curves were plotted and IC50 values were calculated using the GraphPad Prism 8 program based on a sigmoidal dose-response equation (4 parameter).

[2] = tested on: SNU-16 cells (Gastric Carcinoma, FGFR2 amplification); assay: Cancer cell line cell viability assay, SNU-16; type: cell-based; conditions: Homo sapiens, 72 hours, Cell Titer-Glo 2.0, read-out: Cancer Cell Viability Assays SNU-16 (IC50 nM)
Procedure, shortened: (§2)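 RT112/84 or SNU-16 cells (10,000/well) treated 72 h at 37° C. with a 9-dose, 10-fold series from 30 μM, in triplicate. Viability by CellTiter-Glo 2.0 luminescence relative to DMSO controls; IC50 from 4-parameter sigmoidal fit.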

[3] = tested on: RT112/84 cells (Bladder Cancer, FGFR3-TACC3 fusion); assay: Cancer cell line cell viability assay, RT112/84; type: cell-based; conditions: Homo sapiens, 72 hours, Cell Titer-Glo 2.0, read-out: Cancer Cell Viability Assays RT112/84 (IC50 nM)
Procedure, shortened: as §2

T2 sequence (P22607 23-806): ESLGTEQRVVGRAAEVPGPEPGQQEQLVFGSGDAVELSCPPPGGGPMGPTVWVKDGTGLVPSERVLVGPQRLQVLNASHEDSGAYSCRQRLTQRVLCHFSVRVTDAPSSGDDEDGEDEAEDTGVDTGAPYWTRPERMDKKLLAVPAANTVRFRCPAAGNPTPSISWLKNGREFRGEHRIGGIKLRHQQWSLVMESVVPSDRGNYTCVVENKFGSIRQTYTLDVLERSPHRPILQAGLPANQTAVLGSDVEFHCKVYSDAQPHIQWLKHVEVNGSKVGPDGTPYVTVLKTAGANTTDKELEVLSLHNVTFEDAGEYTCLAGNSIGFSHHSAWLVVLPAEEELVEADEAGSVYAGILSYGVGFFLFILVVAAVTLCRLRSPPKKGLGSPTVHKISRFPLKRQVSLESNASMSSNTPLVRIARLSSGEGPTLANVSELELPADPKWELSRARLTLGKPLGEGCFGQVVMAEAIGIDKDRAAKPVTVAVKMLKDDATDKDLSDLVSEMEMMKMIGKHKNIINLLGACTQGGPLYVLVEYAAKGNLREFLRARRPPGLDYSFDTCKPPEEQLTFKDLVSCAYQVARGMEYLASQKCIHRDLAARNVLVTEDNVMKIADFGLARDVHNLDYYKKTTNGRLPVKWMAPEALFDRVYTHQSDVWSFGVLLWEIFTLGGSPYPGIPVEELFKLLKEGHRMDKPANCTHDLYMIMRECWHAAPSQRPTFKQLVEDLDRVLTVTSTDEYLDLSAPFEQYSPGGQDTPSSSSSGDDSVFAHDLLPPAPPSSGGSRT
T1 sequence (P11362 22-822): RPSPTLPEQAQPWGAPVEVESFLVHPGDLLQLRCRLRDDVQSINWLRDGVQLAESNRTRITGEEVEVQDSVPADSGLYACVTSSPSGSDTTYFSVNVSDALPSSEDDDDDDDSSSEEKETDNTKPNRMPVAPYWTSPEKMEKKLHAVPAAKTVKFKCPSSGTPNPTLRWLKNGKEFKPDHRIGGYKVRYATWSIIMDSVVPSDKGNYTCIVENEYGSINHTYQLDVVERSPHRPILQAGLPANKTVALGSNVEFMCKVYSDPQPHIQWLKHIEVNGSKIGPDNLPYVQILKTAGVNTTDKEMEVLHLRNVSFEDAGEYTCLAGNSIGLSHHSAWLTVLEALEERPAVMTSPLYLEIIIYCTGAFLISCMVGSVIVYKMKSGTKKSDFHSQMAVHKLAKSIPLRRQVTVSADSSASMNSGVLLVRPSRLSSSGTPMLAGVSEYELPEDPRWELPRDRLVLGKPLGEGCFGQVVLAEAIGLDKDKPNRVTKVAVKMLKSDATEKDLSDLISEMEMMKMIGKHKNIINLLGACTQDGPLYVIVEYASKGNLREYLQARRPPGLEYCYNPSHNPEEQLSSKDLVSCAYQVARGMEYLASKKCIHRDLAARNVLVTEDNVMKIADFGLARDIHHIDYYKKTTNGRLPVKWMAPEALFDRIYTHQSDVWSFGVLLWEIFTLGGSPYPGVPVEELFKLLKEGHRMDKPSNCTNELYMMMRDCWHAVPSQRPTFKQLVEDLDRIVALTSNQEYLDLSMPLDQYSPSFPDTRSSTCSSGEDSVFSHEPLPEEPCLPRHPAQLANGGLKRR
T3 sequence (P22455 22-802): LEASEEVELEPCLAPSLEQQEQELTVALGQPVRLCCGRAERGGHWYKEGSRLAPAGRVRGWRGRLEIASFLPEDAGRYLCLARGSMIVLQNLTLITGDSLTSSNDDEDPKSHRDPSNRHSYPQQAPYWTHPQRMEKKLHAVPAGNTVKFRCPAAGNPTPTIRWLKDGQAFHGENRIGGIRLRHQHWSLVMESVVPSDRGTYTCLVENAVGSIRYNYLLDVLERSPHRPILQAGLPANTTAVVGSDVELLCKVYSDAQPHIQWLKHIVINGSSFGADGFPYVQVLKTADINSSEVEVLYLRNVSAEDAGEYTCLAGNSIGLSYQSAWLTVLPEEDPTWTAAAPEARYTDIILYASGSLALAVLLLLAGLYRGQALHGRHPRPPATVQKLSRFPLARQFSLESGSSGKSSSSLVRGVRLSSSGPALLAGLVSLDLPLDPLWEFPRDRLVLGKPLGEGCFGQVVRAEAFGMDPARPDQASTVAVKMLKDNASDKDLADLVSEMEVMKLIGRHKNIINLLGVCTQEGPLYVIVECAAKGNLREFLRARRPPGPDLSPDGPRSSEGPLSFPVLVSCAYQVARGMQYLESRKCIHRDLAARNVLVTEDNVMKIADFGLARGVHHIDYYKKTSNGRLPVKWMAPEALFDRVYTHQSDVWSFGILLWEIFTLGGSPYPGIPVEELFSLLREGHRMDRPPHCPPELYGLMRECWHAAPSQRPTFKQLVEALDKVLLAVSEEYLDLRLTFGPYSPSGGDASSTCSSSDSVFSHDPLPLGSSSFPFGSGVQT

Kd (FGFR1): 230 nM
Kd (FGFR3): 21 nM
Kd (FGFR4): 370 nM
IC50 [1]: 9 nM
IC50 [2]: 12 nM
IC50 [3]: 159 nM
SMILES: C=CC(=O)Nc1ccc2c(ccn2-c2nc(Nc3ccc(S(C)(=N)=O)cc3)ncc2Cl)c1 (stereo not drawn) [Example 70, N-[1-[5-Chloro-2-[4-(methylsulfonimidoyl)anilino]-pyrimidin-4-yl]indol-5-yl]prop-2-enamide]

Kd (FGFR1): 63 nM
Kd (FGFR3): 12 nM
Kd (FGFR4): 230 nM
IC50 [1]: 5 nM
IC50 [3]: 47 nM
SMILES: C=CC(=O)Nc1ccc2c(-c3nc(Nc4ccc(N=S(C)(C)=O)cc4)ncc3Cl)cn(C)c2c1 [Example 92, N-[3-[5-chloro-2-[4-[[dimethyl(oxo)-λ^6-sulfanylidene]amino]anilino]pyrimidin-4-yl]-1-methyl-indol-6-yl]prop-2-enamide]

Kd (FGFR1): 61 nM
Kd (FGFR3): 21 nM
Kd (FGFR4): 680 nM
IC50 [1]: 20 nM
IC50 [2]: 65 nM
IC50 [3]: 113 nM
SMILES: C=CC(=O)Nc1ccc2c(ccn2-c2nc(Nc3ccc(N=S(C)(C)=O)cc3)ncc2Cl)c1 [Example 66, N-[1-[5-chloro-2-[4-[[dimethyl(oxo)-λ^6-sulfanylidene]amino]anilino]-pyrimidin-4-yl]indol-5-yl]prop-2-enamide]

Second part, the compound before the results:

SMILES: C=CC(=O)Nc1ccc2c(c1)c(C)cn2-c1nc(Nc2ccc(N=S(C)(C)=O)c(OC)c2)ncc1Cl [Example 64, N-[1-[5-Chloro-2-[4-[[dimethyl(oxo)-λ^6-sulfanylidene]amino]-3-methoxy-anilino]pyrimidin-4-yl]-3-methyl-indol-5-yl]prop-2-enamide]
Kd (FGFR1): 5 nM
Kd (FGFR3): 4 nM
Kd (FGFR4): 59 nM
IC50 [1]: 1 nM
IC50 [3]: 12 nM

SMILES: C=CC(=O)Nc1ccc2c(c1)c(C)cn2-c1nc(Nc2ccc(N=S(C)(C)=O)cc2)ncc1Cl [Example 61, N-[1-[5-Chloro-2-[4-[[dimethyl(oxo)-λ^6-sulfanylidene]amino]anilino]pyrimidin-4-yl]-3-methyl-indol-5-yl]prop-2-enamide]
Kd (FGFR1): 21 nM
Kd (FGFR3): 6 nM
Kd (FGFR4): 100 nM
IC50 [1]: 6 nM
IC50 [3]: 23 nM

SMILES: C=CC(=O)Nc1ccc2c(c1)c(C)cn2-c1nc(Nc2ccc(N=S(C)(C)=O)c(F)c2)ncc1C#N [Example 62, N-[1-[5-Cyano-2-[4-[[dimethyl(oxo)-λ^6-sulfanylidene]amino]-3-fluoro-anilino]pyrimidin-4-yl]-3-methyl-indol-5-yl]prop-2-enamide]
Kd (FGFR1): 79 nM
Kd (FGFR3): 20 nM
Kd (FGFR4): 170 nM
IC50 [1]: 17 nM
IC50 [3]: 64 nM

SMILES: C=CC(=O)Nc1ccc2c(c1)c(C)cn2-c1nc(Nc2ccc(N=S(C)(C)=O)c(F)c2)ncc1Cl [Example 60, N-[1-[5-Chloro-2-[4-[[dimethyl(oxo)-λ^6-sulfanylidene]amino]-3-fluoro-anilino]pyrimidin-4-yl]-3-methyl-indol-5-yl]prop-2-enamide]
Kd (FGFR1): 14 nM
Kd (FGFR3): 3.5 nM
Kd (FGFR4): 42 nM
IC50 [1]: 4 nM
IC50 [3]: 16 nM

SMILES: C=CC(=O)Nc1ccc2c(c1)c(C)cn2-c1nc(Nc2ccc(N=S(C)(C)=O)c(F)c2)ncc1C [Example 63, N-[1-[2-[4-[[dimethyl(oxo)-λ^6-sulfanylidene]amino]-3-fluoro-anilino]-5-methyl-pyrimidin-4-yl]-3-methyl-indol-5-yl]prop-2-enamide]
Kd (FGFR1): 10 nM
Kd (FGFR3): 3 nM
Kd (FGFR4): 39 nM
IC50 [1]: 1 nM
IC50 [3]: 8 nM

— patent US20230115945A1, “AMINOPYRIMIDINE COMPOUNDS” (TYRA BIOSCIENCES, INC., priority 2019, published 2023)
